According to patent US11198692B2, “Dihydro-pyrrolo-pyridine derivatives” (Pfizer Inc., priority 2017, dated 2021):

Biological target: T1, Human M4 receptors (Homo sapiens, UniProt P08173)
T1 construct: expressed in transfected cells
T1 sequence (P08173 1-479): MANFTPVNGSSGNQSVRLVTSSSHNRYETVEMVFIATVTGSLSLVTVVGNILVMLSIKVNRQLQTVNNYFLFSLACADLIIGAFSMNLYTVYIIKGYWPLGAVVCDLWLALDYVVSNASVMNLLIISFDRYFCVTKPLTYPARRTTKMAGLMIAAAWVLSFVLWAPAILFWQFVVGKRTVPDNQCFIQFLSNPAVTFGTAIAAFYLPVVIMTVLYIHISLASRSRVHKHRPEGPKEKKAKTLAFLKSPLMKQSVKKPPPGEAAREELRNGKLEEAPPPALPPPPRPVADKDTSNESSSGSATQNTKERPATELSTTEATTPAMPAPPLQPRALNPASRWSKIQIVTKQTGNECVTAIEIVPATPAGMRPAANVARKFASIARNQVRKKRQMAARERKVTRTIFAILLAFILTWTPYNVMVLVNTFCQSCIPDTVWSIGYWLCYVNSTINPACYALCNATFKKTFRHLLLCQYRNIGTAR
Assay: M4 PAM cAMP assay (GloSensor)
Assay type: cell-based
Conditions: HEK293 GloSensor cells expressing hM4, with EC20 acetylcholine and isoproterenol, geometric mean of 2-4 determinations unless footnoted (b: >=5, c: single); for Emax: Emax = maximum asymptote of fitted dose response curve, read-out: EC50 Mean Asymptote Maximum (%)
Procedure, shortened: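 hM4-expressing HEK293 GloSensor cells were equilibrated 2 h at RT with GloSensor reagent, then given compound with EC20 acetylcholine and isoproterenol (EC80) for 10 min at RT before reading. Effect normalised to 10 μM acetylcholine and DMSO; 10-point duplicate curves fitted 4-parameter for EC50 and Emax (top asymptote).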

Row | Emax | EC50 | Structure (SMILES)
1 | 95.6% | 5.46 nM | CNc1nc(C)c(C)c2c1CN(C(=O)CC1CN(c3ccnc(C#N)c3)C1)C2 [Example 36, 4-(3-{2-[6,7-dimethyl-4-(methylamino)-1,3-dihydro-2H-pyrrolo[3,4-c]pyridin-2-yl]-2-oxoethyl}azetidin-1-yl)pyridine-2-carbonitrile]
2 | 90.9% | 8.62 nM | Cc1c2c(c(=O)n(C)c1C)CN(C(=O)CC1CN(c3cccnc3)C1)C2 [Example 1, 5,6,7-Trimethyl-2-{[1-(pyridin-3-yl)azetidin-3-yl]acetyl}-1,2,3,5-tetrahydro-4H-pyrrolo[3,4-c]pyridin-4-one]
3 | 106% | 2.91 nM | CNc1nc(C)c(C)c2c1CN(C(=O)CC1CN(c3ccnc(OC(F)F)c3)C1)C2 [Example 3, 2-{1-[2-(Difluoromethoxy)pyridin-4-yl]azetidin-3-yl}-1-[6,7-dimethyl-4-(methylamino)-1,3-dihydro-2H-pyrrolo[3,4-c]pyridin-2-yl]ethanone]
4 | 128% | 5.32 nM | CNc1nc(C)c(C)c2c1CN(C(=O)C[C@@H]1C[C@H]1c1ccc(Cl)nc1)C2 (racemic) [Example 33, 2-[trans-2-(6-chloropyridin-3-yl)cyclopropyl]-1-[6,7-dimethyl-4-(methylamino)-1,3-dihydro-2H-pyrrolo[3,4-c]pyridin-2-yl]ethanone]
5 | 96.1% | 78.7 nM | COc1nc(C)c(C)c2c1CN(C(=O)CC1CN(c3cncnc3)C1)C2 [Example 55, 1-(4-methoxy-6,7-dimethyl-1,3-dihydro-2H-pyrrolo[3,4-c]pyridin-2-yl)-2-[1-(pyrimidin-5-yl)azetidin-3-yl]ethanone]
6 | 95.9% | 1.44 nM | CNc1nc(C)c(C)c2c1CN(C(=O)CC1CN(c3ccncn3)C1)C2 [Example 23, 1-[6,7-dimethyl-4-(methylamino)-1,3-dihydro-2H-pyrrolo[3,4-c]pyridin-2-yl]-2-[1-(pyrimidin-4-yl)azetidin-3-yl]ethanone]
